One test relates to THP-1 cells. In words: Human monocytic THP-1 cell differentiation assay for soluble proteins (THP-1 soluble protein assay). The test is classed as cell-based. The conditions noted are these: LPS-stimulated THP-1 cells, soluble protein not given. An excerpt:
Mitogenic stimulation of THP-1 cells cause differentiation into macrophage like cells with concomitant secretion of tumor necrosis factor (TNF-α) and TNF receptor (TNF-R p75/80 and TNF-R p55160) and Interleukin-8 (IL-8), among other proteins. In addition, non-stimulated THP-1 cells shed both the p75/80 and the p55/60 receptors over time. The release of membrane bound TNF-α and possibly TNF-R p75/80 and TNF-R p55/60, but not IL-8, is mediated by an enzyme called TNF-α converting enzyme or TACE.
THP-1 cells (from ATCC) are a human monocytic cell line which were obtained from the peripheral blood of a person with acute monocytic leukemia. They can be grown in culture and differentiated into macrophage like cells by stimulation with mitogens.
Each vial of cells are cultured for about two weeks prior to being used for an assay and then are used for only 4 to 6 weeks to screen compounds.
Cell exposure to DMSO was limited to 0.1% final concentration. […] Compounds can be evaluated for their effect on basal (non-stimulated) shedding of the receptors by replacing the LPS with […] of THP-1 media.
Plates are placed into an incubator set at 5% CO2 and at 37° C. After 4 hours of incubation, […] of tissue culture supernatant (TCS) is removed for use in an TNF-α ELISA. Following 24 hours of incubation, […] of TCS is removed and used for analysis in TNF-R p75/80, TNF-R p55160 and IL-8 ELISAs.
In addition, at the 24 hours timepoint, and the cells for each treatment group are collected by resuspension in 500 μl/well of THP-1 media and transferred into a FACS tube. […] The samples are run on a Becton Dickinson FaxCaliber FLOW cytometry machine and the amount of dye taken up by each cell is measured in the high red wavelength (FL3). Only cells with compromised membranes (dead or dying) can take up PI. The percent of live cells is calculated by the number of cells not stained with PI, divided by the total number of cells in the sample. The viability values calculated for the drug treated groups were compared to the viability value calculated for the vehicle treated mitogen stimulated group (“vehicle positive control”) to determine the “percent change from control”. This “percent change from control” value is an indicator of drug toxicity.
The quantity of soluble TNF-α, TNF-R p75/80 and TNF-R p55160 and IL-8 in the TCS of the THP-1 cell cultures are obtained with commercially available ELISAs from R&D Systems, by extrapolation from a standard curve generated with kit standards. The number of cells that either take up or exclude PI are measured by the FLOW cytometry machine and visualized by histograms using commercially available Cytologic software for each treatment group including all controls.
Biological variability in the magnitude of the response of THP-1 cell cultures requires that experiments be compared on the basis of percent change from “vehicle positive control” for each drug concentration. Percent change in each soluble protein evaluated from the “vehicle positive control” was calculated for each compound concentration with the following formula: [formula]
For the soluble protein (TNF-α, p75/80, p55/60, IL-8) studies under stimulated conditions, the mean pg/ml of duplicate wells were determined and the results expressed as percent change from “vehicle positive control”. For the soluble protein (p75/80 and p55/60 receptors) studies under non-stimulated conditions, the mean pg/ml of duplicate wells were determined and the results expressed as percent change from “vehicle positive control” utilizing the following formula: [formula]
IC50 values for each compound are calculated by non-linear regression analysis using customized software utilizing the JUMP statistical package.
For the cell viability studies, the viabilities (PI exclusion) of pooled duplicate wells were determined and the results expressed as % change from “vehicle positive control”.

A further test has as its target MMP-9 (Homo sapiens, UniProt P14780). In words: MMP-9 inhibition (thiopeptide or fluorescent peptide substrate). In kind it is biochemical. The conditions noted are these: for IC50: read-out: MMP9 IC50.

MMP-9, sequence (P14780 94-707): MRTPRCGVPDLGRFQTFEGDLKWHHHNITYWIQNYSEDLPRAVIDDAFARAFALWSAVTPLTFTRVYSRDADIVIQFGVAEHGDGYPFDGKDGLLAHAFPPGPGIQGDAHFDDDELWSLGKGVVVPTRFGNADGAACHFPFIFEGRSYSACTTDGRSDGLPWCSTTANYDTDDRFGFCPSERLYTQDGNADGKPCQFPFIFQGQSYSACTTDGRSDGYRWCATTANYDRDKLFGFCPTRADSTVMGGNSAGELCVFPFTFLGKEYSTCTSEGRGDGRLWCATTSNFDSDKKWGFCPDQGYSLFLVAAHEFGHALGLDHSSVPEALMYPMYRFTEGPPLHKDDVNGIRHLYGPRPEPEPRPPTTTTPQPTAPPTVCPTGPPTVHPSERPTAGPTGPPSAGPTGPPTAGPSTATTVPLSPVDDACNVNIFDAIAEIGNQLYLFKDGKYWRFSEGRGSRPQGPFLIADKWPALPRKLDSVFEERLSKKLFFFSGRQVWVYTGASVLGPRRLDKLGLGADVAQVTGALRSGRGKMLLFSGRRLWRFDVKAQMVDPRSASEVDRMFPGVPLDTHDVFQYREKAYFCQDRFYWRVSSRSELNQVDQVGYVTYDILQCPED

With `C#CCOc1ccc(S(=O)(=O)C2(C(=O)NO)CCN(Cc3ccc(OC)cc3)CC2)cc1` [Example 28, 1-(4-Methoxy-benzyl)-4-(4-prop-2-ynyloxy-benzenesulfonyl)-piperidine-4-carboxylic acid hydroxyamide], in the test on THP-1 cells, 3 µM produced 13% inhibition. Besides, at MMP-9, the IC50 – broadly, the midpoint of a concentration-inhibition curve – amounted to 15.4 nM.

Regarding `C#CCOc1ccc(S(=O)(=O)C2(C(=O)NO)CCN(Cc3ccc(Cl)cc3)CC2)cc1` [Example 29, 1-(4-Chlorobenzyl)-4-(4-prop-2-ynyloxy-benzenesulfonyl)-piperidine-4-carboxylic acid hydroxyamide], the inhibition (in general, the percentage by which the read-out fell short of the control) at 3 µM with THP-1 cells came out at 13%. Moreover, at MMP-9, the IC50 turned out to be 16 nM.

Compound `CC#CCOc1ccc(SCC2(C(=O)NO)CCN(C(=O)OC(C)(C)C)CC2)cc1` [Example 30, tert-butyl-4-({[4-(2-butynyloxy)phenyl]sulfanyl}methyl)-4-[(hydroxyamino)-carbonyl]-1-piperidinecarboxylate] registered an inhibition at 3 µM in the test on THP-1 cells of 0%. Moreover, at MMP-9, the IC50 was 5900 nM.

For the compound `CC#CCOc1ccc(SCC2(C(=O)NO)CCNCC2)cc1` [Example 31, 4-({[4-(But-2-ynyloxy)phenyl]thio}methyl)-N-hydroxypiperidine-4-carboxamide], at 3 µM the inhibition in the test on THP-1 cells was 8%. Besides, at MMP-9, the IC50 was above 10000 nM.

In turn, `CC#CCOc1ccc([S+]([O-])CC2(C(=O)NO)CCN(C(=O)OC(C)(C)C)CC2)cc1` (stereo not drawn) [Example 32, tert-Butyl-4-({[4-(2-butynyloxy)phenyl]sulfinyl}methyl)-4-[(hydroxyamino)-carbonyl]-1-piperidinecarboxylate] gave an inhibition at 3 µM with THP-1 cells of 0%. In addition, the IC50 on MMP-9 is above 10000 nM.

On to `CC#CCOc1ccc([S+]([O-])CC2(C(=O)NO)CCNCC2)cc1` (stereo not drawn) [Example 33, 4-[[[4-(2-Butynyloxy)phenyl]sulfinyl]methyl]-N-hydroxy-4-piperidinecarboxamide], for which, in the test with THP-1 cells, at 3 µM the inhibition was 8%. For the same compound, on MMP-9, the IC50 is above 5000 nM.

In the test on THP-1 cells, `CC#CCOc1ccc(S(=O)(=O)CC2(C(=O)NO)CCN(C(=O)OC(C)(C)C)CC2)cc1` [Example 34, tert-Butyl-4-({[4-(but-2-ynyloxy)phenyl]sulfonyl}methyl)-4-[(hydroxyamino)-carbonyl]piperidine-1-carboxylate] returned an inhibition at 3 µM of 68%. On MMP-9, the IC50 was determined as 1390 nM.

In turn, `CC#CCOc1ccc(S(=O)(=O)CC2(C(=O)NO)CCN(C(C)=O)CC2)cc1` [Example 36, 1-Acetyl-4-[[[4-(2-butynyloxy)phenyl]sulfonyl]methyl]-N-hydroxy-4-piperidinecarboxamide] showed an inhibition at 3 µM in the test with THP-1 cells of 58%. In addition, on MMP-9, the IC50 is 2830 nM.

Regarding `CC#CCOc1ccc(S(=O)(=O)CC2(C(=O)NO)CCN(C(=O)NC(C)(C)C)CC2)cc1` [Example 38], in the test with THP-1 cells, the inhibition at 3 µM amounted to 53%. On MMP-9, the IC50 was found to be 1440 nM.

As to `CC#CCOc1ccc(S(=O)(=O)CC2(C(=O)NO)CCN(C(=O)OCc3ccccc3)CC2)cc1` [Example 40, Benzyl 4-({[4-(2-butynyloxy)phenyl]sulfonyl}methyl)-4-[(hydroxyamino)-carbonyl]-1-piperidinecarboxylate], in the test with THP-1 cells, at 3 µM the inhibition was 41%. In addition, the IC50 on MMP-9 came out at 425 nM.

The compound `CC#CCOc1ccc(S(=O)(=O)CC2(C(=O)NO)CCN(Cc3ccccc3)CC2)cc1` [Example 41] had an inhibition at 3 µM in the test with THP-1 cells of 60%. Besides, the IC50 at MMP-9 was 1120 nM.

`CC#CCOc1ccc(S(=O)(=O)CC2(C(=O)NO)CCN(C(=O)C3(C)COC(C)(C)OC3)CC2)cc1` [Example 42, 4-({[4-(2-Butynyloxy)phenyl]sulfonyl}methyl)-N-hydroxy-1-[(2,2,5-trimethyl-1,3-dioxan-5-yl)carbonyl]-4-piperidinecarboxamide] yielded an inhibition at 3 µM in the test on THP-1 cells of 78%. Further, the IC50 at MMP-9 was above 10000 nM.

For the compound `CC#CCOc1ccc(S(=O)(=O)CC2(C(=O)NO)CCN(C(=O)C(C)(CO)CO)CC2)cc1` [Example 43, 4-({[4-(2-Butynyloxy)phenyl]sulfonyl}methyl)-N-hydroxy-1-[3-hydroxy-2-(hydroxymethyl)-2-methylpropanoyl]-4-piperidinecarboxamide], in the test on THP-1 cells, at 3 µM the inhibition was 66%. Also, the IC50 on MMP-9 was above 10000 nM.

`CC#CCOc1ccc(S(=O)(=O)CC2(C(=O)NO)CCN(C(=N)N)CC2)cc1` [Example 44] gave an inhibition at 3 µM in the test with THP-1 cells of 49%. Further, the MMP9 % inhibition at MMP-9 (printed in the MMP9 IC50 column, concentration not given) is 50.6%.

With `CC#CCOc1ccc(S(=O)(=O)CC2(C(=O)NO)CCN(CC#CCO)CC2)cc1` [Example 45], in the test on THP-1 cells, the inhibition at 3 µM turned out to be 48%. Besides, at MMP-9, the IC50 stood at 3580 nM.

In the test with THP-1 cells, `CC#CCOc1ccc(S(=O)(=O)C2(C(=O)NO)CCN(C(C)=O)CC2)cc1` [Example 64, 1-Acetyl-4-(4-but-2-ynyloxybenzenesulfonyl)piperidine-4-carboxylic acid hydroxamide] displayed an inhibition at 3 µM of 30%. For the same compound, the IC50 at MMP-9 turned out to be 560 nM.

Regarding `CC#CCOc1ccc(S(=O)(=O)C2(C(=O)NO)CCN(C(=O)c3ccccc3)CC2)cc1` [Example 65, 1-Benzoyl-4-(4-but-2-ynyloxybenzenesulfonyl)piperidine-4-carboxylic acid hydroxamide], the inhibition at 3 µM in the test with THP-1 cells stood at 3%. The IC50 at MMP-9 was found to be 448 nM.

`CC#CCOc1ccc(S(=O)(=O)C2(C(=O)NO)CCN(C(=O)c3ccc(OC)cc3)CC2)cc1` [Example 66, 1-(4-Methoxybenzoyl)-4-(4-but-2-ynyloxybenzenesulfonyl)piperidine-4-carboxylic acid hydroxamide] registered an inhibition at 3 µM with THP-1 cells of 73%. Besides, on MMP-9, the IC50 stood at 430 nM.

On to `CC#CCOc1ccc(S(=O)(=O)C2(C(=O)NO)CCN(C(=O)N3CCCC3)CC2)cc1` [Example 67, 4-(4-But-2-ynyloxybenzenesulfonyl)-N-hydroxy-1-(pyrrolidine-1-carbonyl)-4-piperidinecarboxamide], for which, in the test with THP-1 cells, the inhibition at 3 µM came out at 18%. Also, the IC50 at MMP-9 was determined as 853 nM.

Take `CC#CCOc1ccc(S(=O)(=O)C2(C(=O)NO)CCN(C(=O)OCC)CC2)cc1` [Example 68, Ethyl 4-(4-but-2-ynyloxybenzenesulfonyl)-4-[(hydroxyamino)-carbonyl]-1-piperidinecarboxylate]: the inhibition at 3 µM with THP-1 cells was 10%. At MMP-9, the half-inhibitory concentration (IC50) was determined as 1330 nM.

Compound `CC#CCOc1ccc(S(=O)(=O)C2(C(=O)NO)CCN(S(=O)(=O)C(F)(F)F)CC2)cc1` [Example 69, 4-(4-But-2-ynyloxybenzenesulfonyl)-N-hydroxy-1-[(trifluoromethyl)-sulfonyl]-4-piperidinecarboxamide] had an inhibition at 3 µM in the test on THP-1 cells of 14%. Further, on MMP-9, the IC50 came out at 1250 nM.

Take `CC#CCOc1ccc(S(=O)(=O)C2(C(=O)NO)CCN(C(=O)c3cccnc3)CC2)cc1` [Example 70, 4-(4-But-2-ynyloxybenzenesulfonyl)-N-hydroxy-1-(3-pyridinylcarbonyl)-4-piperidinecarboxamide]: in the test on THP-1 cells, the inhibition at 3 µM amounted to 62%. Further, the IC50 on MMP-9 came to 639 nM.

In the test on THP-1 cells, `CC#CCOc1ccc(S(=O)(=O)C2(C(=O)NO)CCN(C(=O)c3cccs3)CC2)cc1` [Example 71, 4-(4-but-2-ynyloxybenzenesulfonyl)-N-hydroxy-1-(2-thienylcarbonyl)-4-piperidinecarboxamide] registered an inhibition at 3 µM of 14%. The IC50 on MMP-9 was determined as 811 nM.

In turn, `CC#CCOc1ccc(S(=O)(=O)C2(C(=O)NO)CCN(S(=O)(=O)c3ccc(OC)cc3)CC2)cc1` [Example 72, 4-(4-but-2-ynyloxybenzenesulfonyl)-N-hydroxy-1-[(4-methoxyphenyl)-sulfonyl]-4-piperidinecarboxamide] yielded an inhibition at 3 µM with THP-1 cells of 56%. The IC50 at MMP-9 stood at 1210 nM.

(Values after patent publication US6753337B2, “Alkynyl containing hydroxamic acid compounds as matrix metalloproteinase/tace inhibitors” (Wyeth Holdings Corporation, priority 1999, dated 2004).)
